Experimental data from ChEMBL document CHEMBL5724709, “EUbOPEN Chemogenomics Library - IncuCyte” (2024).
Square brackets hold non-standard residues; d marks the D form. Peptide text beside a SMILES is read from it. * marks the point of attachment. Benzoyl(4-OPh) = O=C(c1ccc(Oc2ccccc2)cc1)*; Benzoyl(4-tBu) = CC(C)(C)c1ccc(C(=O)*)cc1; Lys(Et2) = CCN(CC)CCCC[C@H](N)C(=O)O; d(aIle) = CC[C@H](C)[C@@H](N)C(=O)O; Gly(cPent) = N[C@H](C(=O)O)C1CCCC1; Nle = CCCC[C@H](N)C(=O)O; Cbz = O=C(OCc1ccccc1)*; NH(propargyl) = C#CCN*; Boc = CC(C)(C)OC(=O)*; CH2Cl = ClC*; CH2F = FC*

Experiments:
Assay type in all cases: toxicity, cell-based
HEK-293T = test: Incucyte cell viability with HEK293T; conditions: human, 24 h, 10 µM, compound concentration 10 uM
Fibroblast = test: Incucyte cell viability with human fibroblast; conditions: 24 h, 10 µM, compound concentration 10 uM
U2OS = test: Incucyte cell viability with U2OS; conditions: human, 24 h, 10 µM, compound concentration 10 uM
Also: unitless GR value; below 1 slowed growth and below 0 cell loss.

SMILES | Growth Rate (HEK-293T; replicate number 1) | Growth Rate (HEK-293T; replicate number 2) | Growth Rate (Fibroblast; replicate number 1) | Growth Rate (Fibroblast; replicate number 2) | Growth Rate (U2OS; replicate number 1) | Growth Rate (U2OS; replicate number 2)
O=C(NO)c1ccc(CN2CCCc3cc(Cl)ccc32)cc1 | 0.69 | 0.85 | 0.78 | -0.22 | 0 | 0.79
CC(=O)N[C@@H](C)C(=O)N[C@@H](CCC(=O)O)C(=O)N[C@H](C(=O)N[C@@H](C=O)CC(=O)O)C(C)C (Ac-AEV[dD]-aldehyde) | 0.78 | 1 | 0.31 | 0.14 | 0.88 | 0.76
CSCC[C@H](NC(=O)[C@H](CC(=O)O)NC(C)=O)C(=O)N[C@@H](CCC(N)=O)C(=O)N[C@H](C=O)CC(=O)O.O=C(O)C(F)(F)F (Ac-DMQD-aldehyde) | 1 | 0.97 | 0.25 | 1 | 1 | 
CC(=O)N[C@@H](Cc1ccccc1)C(=O)N[C@@H](CC(C)C)C(=O)N[C@H](C(=O)N[C@@H](CC(=O)O)C(=O)CCl)[C@@H](C)O (Ac-FLTD-CH2Cl) | 0.96 | 0.99 | 0.51 | 1 | 0.81 | 0.66
CC[C@H](C)[C@H](NC(C)=O)C(=O)N[C@@H](CCC(=O)O)C(=O)N[C@H](C(=O)N[C@H](C=O)CC(=O)O)[C@@H](C)O.O=C(O)C(F)(F)F (Ac-IETD-aldehyde) | 0.57 | 1 | 0.25 | 0.42 | 1 | 
CC(=O)N[C@@H](CC(C)C)C(=O)N[C@@H](CCC(=O)O)C(=O)N[C@@H](Cc1cnc[nH]1)C(=O)N[C@@H](CC(=O)O)C(=O)CCl.O=C(O)C(F)(F)F (Ac-LEHD-CH2Cl) | 0.35 | 0.95 | 0.44 | 1 | 0.62 | 1
CC(=O)N[C@@H](CC(C)C)C(=O)N[C@@H](CCC(=O)O)C(=O)N[C@@H](Cc1cnc[nH]1)C(=O)N[C@H](C=O)CC(=O)O.O=C(O)C(F)(F)F (Ac-LEHD-aldehyde) | 0.81 | 0.98 | 1 | 0.49 | 1 | 0.89
CC(=O)N[C@@H](CC(C)C)C(=O)N[C@@H](CCC(=O)O)C(=O)N[C@H](C(=O)N[C@H](C=O)CC(=O)O)C(C)C (Ac-LEVD-aldehyde) | 0.89 | 0.82 | 0.82 | 0.19 | 0.75 | 1
CCCC[C@@H](C=O)NC(=O)[C@H](CC(C)C)NC(=O)[C@H](CC(C)C)NC(C)=O (Ac-Leu-Leu-[Nle]-aldehyde) | -0.02 | 0.18 | 0.53 | 1 | -0.08 | 0.62
CC(=O)N[C@H](C(=O)N[C@@H](CC(=O)O)C(=O)N[C@H](C(=O)N[C@@H](C)C(=O)N[C@H](C=O)CC(=O)O)C(C)C)C(C)C (Ac-VDVAD-aldehyde) | 0.65 | 1 | 0.52 | 1 | 0.65 | 0.76
CC[C@H](C)[C@H](NC(=O)[C@H](CCC(=O)O)NC(=O)[C@@H](NC(C)=O)C(C)C)C(=O)N[C@H](C=O)CC(=O)O.O=C(O)C(F)(F)F (Ac-VEID-aldehyde) | 0.64 | 0.97 | 1 | 0.22 | 1 | 
CC(C)[C@H](NC(=O)[C@H](CCC(=O)O)NC(=O)[C@H](C)NC(=O)OC(C)(C)C)C(=O)N[C@H](C=O)CC(=O)O.O=C(O)C(F)(F)F (Boc-AEVD-aldehyde) | 0.66 | 0.93 | 0.24 | 1 | 1 | 
COC(=O)CC[C@H](NC(=O)[C@H](C)NC(=O)OCc1ccccc1)C(=O)N[C@H](C(=O)N[C@@H](CC(=O)OC)C(=O)CF)C(C)C (Cbz-AE(OMe)VD(OMe)-CH2F) | 0.7 | 0.98 | 0.35 | 1 | 1 | 
O=CC1CCCN1C(=O)C1CCCN1C(=O)OCc1ccccc1 (stereo not drawn) (Cbz-Pro-Pro-aldehyde; configuration not given here) | 0.88 | 0.71 | 0.22 | 0.25 | 0.37 | 0.84
COC(=O)CC[C@H](NC(=O)[C@H](Cc1c[nH]c2ccccc12)NC(=O)OCc1ccccc1)C(=O)N[C@@H](Cc1cnc[nH]1)C(=O)N[C@@H](CC(=O)OC)C(=O)CF (Cbz-WE(OMe)HD(OMe)-CH2F) | 0.94 | 0.95 | 0.4 | 1 | 0.82 | 0.99
CCCC(NC(=O)C(CC(C)C)NC(=O)OCc1ccccc1)C(=O)C(=O)NCc1ccccn1 (racemic) | 0.78 | 1 | 0.96 | 1 | 1 | 0.89

SMILES | Growth Rate (HEK-293T; replicate number 1) | Growth Rate (HEK-293T; replicate number 2) | Growth Rate (Fibroblast; replicate number 1) | Growth Rate (Fibroblast; replicate number 2) | Growth Rate (U2OS; replicate number 1) | Growth Rate (U2OS; replicate number 2)
C#CCNC(=O)[C@H](CO)NC(=O)[C@H](CCCCN(CC)CC)NC(=O)[C@H](NC(=O)[C@@H](NC(=O)c1ccc(Oc2ccccc2)cc1)C1CCCC1)[C@@H](C)CC ({Benzoyl(4-OPh)}-[Gly(cPent)][d(aIle)][Lys(Et2)]S-{NH(propargyl)}) | 0.58 | 1 | 1 | 0.24 | 1 | 
CCN(CC)CCCC[C@H](NC(=O)[C@H](CC(C)C)NC(=O)[C@H](C)NC(=O)[C@H](Cc1ccccc1)NC(=O)c1ccc(C(C)(C)C)cc1)C(=O)N[C@@H](CO)C(=O)OC ({Benzoyl(4-tBu)}-FAL[Lys(Et2)]S-OMe) | 0.81 | 0.89 | 0.92 | 0.71 | 1 | 
CCCN1CCN(c2ccc(C(=O)NC3(C(=O)NCC#N)CCCCC3)cc2)CC1 [BALICATIB] | 0.79 | 0.95 | 1 |  | 1 | 0.86
CCS(=O)(=O)N1CC(CC#N)(n2cc(-c3ncnc4[nH]ccc34)cn2)C1 [BARICITINIB] | 0.96 | 1 | 0.11 | 0.42 | 1 | 0.77
CC/C(=C(/c1ccc(/C=C/C(=O)O)cc1)c1ccc2[nH]ncc2c1)c1ccc(F)cc1Cl [BRILANESTRANT] | 0.82 | 0.87 | 1 |  | 1 | 0.77
CCCC1O[C@@H]2C[C@H]3[C@@H]4CCC5=CC(=O)C=C[C@]5(C)[C@H]4[C@@H](O)C[C@]3(C)[C@]2(C(=O)CO)O1 (some centres undefined) [BUDESONIDE] | 0.73 | 0.82 | 0.7 | 1 | 1 | 0.58
O=C(CCCCCCNC(=O)c1cnc(N(c2ccccc2)c2ccccc2Cl)nc1)NO [CITARINOSTAT] | 0.9 | 1 | 1 | 0.2 | -0.08 | 0.29
COc1cc(C)[nH]c(=O)c1CNC(=O)c1c(C)n([C@H](C)C2CCN(CC(F)(F)F)CC2)c2ccccc12 [CPI-1205] | 0.61 | 0.95 | 0.99 | 0.13 | 0.59 | 0.83
CC(=O)O[C@]1(C(C)=O)CC[C@H]2[C@@H]3C=C(Cl)C4=CC(=O)[C@@H]5C[C@@H]5[C@]4(C)[C@H]3CC[C@@]21C [CYPROTERONE ACETATE] | 0.61 | 0.76 | 0.21 | 0.15 | 1 | 0.72
Cc1nc(Nc2ncc(C(=O)Nc3c(C)cccc3Cl)s2)cc(N2CCN(CCO)CC2)n1 [DASATINIB ANHYDROUS] | -0.16 | 0.04 | 1 | 0.23 | -0.47 | -0.3
CC/C(=C(/CC)c1ccc(O)cc1)c1ccc(O)cc1 [DIETHYLSTILBESTROL] | 0.72 | 0.87 | 0.45 | 0.22 | 1 | 0.74
CN1CCN(c2ccc3nc(-c4c(N)c5c(F)cccc5[nH]c4=O)[nH]c3c2)CC1 [DOVITINIB] | -0.39 | -0.2 | 1 |  | -0.35 | -0.04
Nc1ccccc1NC(=O)c1ccc(CNC(=O)OCc2cccnc2)cc1 [ENTINOSTAT] | 1 |  | -0.02 | 0.43 | -0.2 | 0.57
COC(=O)[C@@H]1CC2=CC(=O)CC[C@]2(C)[C@@]23O[C@@H]2C[C@@]2(C)[C@@H](CC[C@@]24CCC(=O)O4)[C@H]13 [EPLERENONE] | 0.61 | 0.95 | 0.25 | 1 | 1 | 
CC(=O)N1CCN([C@H]2CCC[C@@H](NC(=O)c3cc4c(F)ccc(C)c4[nH]3)C2)CC1 [EZM-0414] | 0.77 | 0.94 | 0.85 | 0.56 | 0.87 | 0.93
